Legend:
HiBit-BRM fusion protein = target: T1, HiBit-BRM fusion protein (Homo sapiens, UniProt P51531); assay: HiBiT-BRM cell-based degradation assay (Nano-Glo HiBiT Lytic Detection, 24 h); settings: HeLa cells expressing HiBiT-BRM; for DC50: read-out: BRM HiBit Degradation IC50; for BRM HiBit Degradation Maximum measured: top dose 30 μM
T1 construct: expressed in transfected cells
Method: (§1) Procedure: A stable HeLa cell line expressing HiBiT-BRM was generated. On day 0, 5000 cells were seeded in 40 μL of media into each well of 384-well cell culture plates. On day 1, cells were treated with 120 nL DMSO or 120 nL of 3-fold serially DMSO-diluted compounds (10 points in duplicate with 30 μM as final top dose). Subsequently plates were incubated for 24 h in a standard tissue culture incubator and equilibrated at room temperature for 15 minutes. Nano-Glo HiBiT Lytic Detection System (Promega N3050) reagent was freshly prepared and 20 ul was added to each well. Upon addition of this LgBit-containing reagent, the HiBiT and LgBiT proteins associate to form the luminescent NanoBiT luciferase. The plates were shaken for 10 minutes at room temperature and the bioluminescence read using an EnVision plate reader (PerkinElmer).
(§2) The degradation % was calculated using the following formula: % degradation=100%−100%×(LumSample−LumLC)/(LumHC−LumLC). DMSO treated cells are employed as High Control (HC) and 2 μM of a known BRM/BRG1 degrader standard treated cells are employed as Low Control (LC).

[1] = target: T2, HiBit-BRG1 fusion protein (Homo sapiens, UniProt P51532); assay: HiBiT-BRG1 cell-based degradation assay (Nano-Glo HiBiT Lytic Detection, 24 h); settings: HeLa cells expressing HiBit-BRG1 and LgBit; for DC50: read-out: BRG1 HiBit Degradation IC50; for Dmax: HeLa, top dose 30 μM, read-out: BRG1 HiBit Degradation Maximum measured
T2 construct: expressed in transfected cells
T2 sequence (P51532 whole entry, the tested form may be a part): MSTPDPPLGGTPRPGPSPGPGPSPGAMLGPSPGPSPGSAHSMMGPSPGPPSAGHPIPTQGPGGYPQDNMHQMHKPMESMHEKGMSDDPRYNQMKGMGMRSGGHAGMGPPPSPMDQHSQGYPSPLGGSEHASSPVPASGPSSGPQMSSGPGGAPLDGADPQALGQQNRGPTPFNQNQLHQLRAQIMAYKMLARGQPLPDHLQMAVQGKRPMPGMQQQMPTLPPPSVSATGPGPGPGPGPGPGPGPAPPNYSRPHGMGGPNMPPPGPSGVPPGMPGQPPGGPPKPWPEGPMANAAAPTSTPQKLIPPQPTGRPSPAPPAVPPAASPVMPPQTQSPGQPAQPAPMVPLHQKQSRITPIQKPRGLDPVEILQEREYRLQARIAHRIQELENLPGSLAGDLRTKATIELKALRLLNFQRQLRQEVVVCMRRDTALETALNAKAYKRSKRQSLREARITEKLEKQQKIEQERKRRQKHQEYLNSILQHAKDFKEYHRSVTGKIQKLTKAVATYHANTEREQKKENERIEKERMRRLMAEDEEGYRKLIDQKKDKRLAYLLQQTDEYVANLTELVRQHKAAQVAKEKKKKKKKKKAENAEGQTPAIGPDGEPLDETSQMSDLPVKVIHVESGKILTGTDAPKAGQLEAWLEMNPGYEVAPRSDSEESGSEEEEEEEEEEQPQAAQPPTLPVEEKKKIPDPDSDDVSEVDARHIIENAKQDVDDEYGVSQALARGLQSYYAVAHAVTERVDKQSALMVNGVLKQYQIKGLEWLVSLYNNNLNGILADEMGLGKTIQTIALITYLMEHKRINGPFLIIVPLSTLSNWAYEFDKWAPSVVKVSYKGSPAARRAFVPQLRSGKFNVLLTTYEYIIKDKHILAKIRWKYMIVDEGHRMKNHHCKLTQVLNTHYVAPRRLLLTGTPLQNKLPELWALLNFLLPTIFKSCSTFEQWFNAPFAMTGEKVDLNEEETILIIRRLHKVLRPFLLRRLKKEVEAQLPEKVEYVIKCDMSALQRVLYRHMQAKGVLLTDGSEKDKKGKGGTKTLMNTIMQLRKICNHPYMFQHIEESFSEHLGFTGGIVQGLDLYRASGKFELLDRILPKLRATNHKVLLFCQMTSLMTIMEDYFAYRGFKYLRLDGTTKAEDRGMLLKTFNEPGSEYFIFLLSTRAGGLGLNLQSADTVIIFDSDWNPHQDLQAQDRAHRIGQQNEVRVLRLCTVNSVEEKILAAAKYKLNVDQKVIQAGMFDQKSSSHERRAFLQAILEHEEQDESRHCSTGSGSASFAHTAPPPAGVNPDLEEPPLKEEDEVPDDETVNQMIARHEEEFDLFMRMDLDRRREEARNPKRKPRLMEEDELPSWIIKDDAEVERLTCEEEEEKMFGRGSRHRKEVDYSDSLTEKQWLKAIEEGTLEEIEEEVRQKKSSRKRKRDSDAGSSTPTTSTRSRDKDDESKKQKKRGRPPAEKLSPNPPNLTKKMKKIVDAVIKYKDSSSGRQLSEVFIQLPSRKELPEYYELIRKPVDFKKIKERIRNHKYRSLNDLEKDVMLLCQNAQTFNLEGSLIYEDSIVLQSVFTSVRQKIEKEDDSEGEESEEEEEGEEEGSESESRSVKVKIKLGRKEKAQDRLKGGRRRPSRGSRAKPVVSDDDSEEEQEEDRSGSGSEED
Method: as §1, with “On day 1, cells were treated with 120 nL DMSO or 120 nL of 3-fold serially DMSO-diluted compounds (10 points in duplicate with 30 μM as final top dose). Subsequently plates were incubated for 24 h in a standard tissue culture incubator and equilibrated at room temperature for 15 minutes.” left out
For measurement of BRG1 degradation, a stable HeLa cell line expressing HiBit-BRG1 and LgBit was generated. The same protocol as above was then followed.
as §2

T1 sequence (P51531 whole entry, the tested form may be a part): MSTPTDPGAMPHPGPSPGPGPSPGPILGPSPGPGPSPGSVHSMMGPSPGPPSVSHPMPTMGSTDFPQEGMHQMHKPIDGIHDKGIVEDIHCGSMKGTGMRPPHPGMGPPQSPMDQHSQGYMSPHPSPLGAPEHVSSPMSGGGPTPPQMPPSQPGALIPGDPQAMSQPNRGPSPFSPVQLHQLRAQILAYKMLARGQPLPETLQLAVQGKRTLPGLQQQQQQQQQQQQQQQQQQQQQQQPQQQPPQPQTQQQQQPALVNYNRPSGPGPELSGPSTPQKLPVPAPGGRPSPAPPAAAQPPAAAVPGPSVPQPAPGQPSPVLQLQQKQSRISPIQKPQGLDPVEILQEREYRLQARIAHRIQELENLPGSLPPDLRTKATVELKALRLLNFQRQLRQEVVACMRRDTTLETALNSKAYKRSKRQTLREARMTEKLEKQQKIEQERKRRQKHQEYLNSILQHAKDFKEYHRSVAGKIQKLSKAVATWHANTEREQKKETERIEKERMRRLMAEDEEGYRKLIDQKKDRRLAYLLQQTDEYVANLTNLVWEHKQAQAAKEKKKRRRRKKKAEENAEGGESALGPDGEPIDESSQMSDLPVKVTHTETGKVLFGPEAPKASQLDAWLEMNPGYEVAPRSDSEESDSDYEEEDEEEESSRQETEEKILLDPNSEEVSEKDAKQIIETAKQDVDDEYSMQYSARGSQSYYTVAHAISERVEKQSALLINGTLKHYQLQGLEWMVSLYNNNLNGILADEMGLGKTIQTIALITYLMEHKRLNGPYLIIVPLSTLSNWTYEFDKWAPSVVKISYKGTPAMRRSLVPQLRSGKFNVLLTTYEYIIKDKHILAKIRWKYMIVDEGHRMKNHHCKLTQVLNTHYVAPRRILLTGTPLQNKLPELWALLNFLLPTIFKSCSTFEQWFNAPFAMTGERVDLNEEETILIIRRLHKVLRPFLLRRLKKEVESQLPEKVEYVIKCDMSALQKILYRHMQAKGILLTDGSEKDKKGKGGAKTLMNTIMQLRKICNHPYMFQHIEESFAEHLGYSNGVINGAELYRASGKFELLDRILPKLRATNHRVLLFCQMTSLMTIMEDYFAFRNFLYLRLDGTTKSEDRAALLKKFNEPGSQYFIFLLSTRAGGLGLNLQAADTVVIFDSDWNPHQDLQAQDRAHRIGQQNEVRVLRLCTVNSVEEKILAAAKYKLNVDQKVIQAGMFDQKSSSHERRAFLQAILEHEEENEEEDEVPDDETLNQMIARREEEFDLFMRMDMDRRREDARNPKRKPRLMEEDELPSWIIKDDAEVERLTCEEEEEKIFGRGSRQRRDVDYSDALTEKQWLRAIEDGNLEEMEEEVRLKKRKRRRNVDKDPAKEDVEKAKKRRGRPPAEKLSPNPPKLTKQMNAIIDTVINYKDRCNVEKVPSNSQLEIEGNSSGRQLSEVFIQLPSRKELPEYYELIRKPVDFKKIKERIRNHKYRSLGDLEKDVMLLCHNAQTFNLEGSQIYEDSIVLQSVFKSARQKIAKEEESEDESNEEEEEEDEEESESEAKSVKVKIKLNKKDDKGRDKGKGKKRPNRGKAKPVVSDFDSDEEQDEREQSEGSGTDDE

Row | SMILES | DC50 (HiBit-BRM fusion protein) [µM] | BRM HiBit Degradation Maximum measured (HiBit-BRM fusion protein) | DC50 [1] [µM] | Dmax [1] [%]
1 | CN(CCNC(=O)CN(C)c1cc(-c2cccc(-c3csc(NC(=O)CNC(=O)c4ccn(S(C)(=O)=O)c4)n3)c2)ccn1)CCNc1cccc2c1C(=O)N(C1CCC(=O)NC1=O)C2=O (centres unmarked) [Compound 21, N-(2-((4-(3-(2-((2-((2-((2-((2-(2,6-dioxopiperidin-3-yl)-1,3-dioxoisoindolin-4-yl)amino)ethyl)(methyl)amino)ethyl)amino)-2-oxoethyl)(methyl)amino)pyridin-4-yl)phenyl)thiazol-2-yl)amino)-2-oxoethyl)-1-(methylsulfonyl)-1H-pyrrole-3-carboxamide] | > 10 | C (‘C’ = Maximum degradation <50%) | > 10 | < 50
2 | CN(CC(=O)N1CC(COc2cccc3c2C(=O)N(C2CCC(=O)NC2=O)C3=O)C1)c1cc(-c2cccc(-c3csc(NC(=O)CNC(=O)c4ccn(S(C)(=O)=O)c4)n3)c2)ccn1 (centres unmarked) [Compound 27] | > 10 | C (‘C’ = Maximum degradation <50%) | > 10 | < 50
3 | CN(CC(=O)NCCCCS(=O)(=O)CCCNc1cccc2c1C(=O)N(C1CCC(=O)NC1=O)C2=O)c1cc(-c2cccc(-c3csc(NC(=O)CNC(=O)c4ccn(S(C)(=O)=O)c4)n3)c2)ccn1 (centres unmarked) [Compound 29] | > 10 | C (‘C’ = Maximum degradation <50%) | > 10 | < 50
4 | CS(=O)(=O)n1ccc(C(=O)NCC(=O)Nc2nc(-c3cccc(-c4cccc(CNC(=O)CCCOc5cccc6c5C(=O)N(C5CCC(=O)NC5=O)C6=O)c4)c3)cs2)c1 (centres unmarked) [Compound 30] | > 10 | C (‘C’ = Maximum degradation <50%) | > 10 | < 50
5 | CS(=O)(=O)n1ccc(C(=O)NCC(=O)Nc2nc(-c3cccc(-c4ccnc(N5CCN(C(=O)C6CC6CNC(=O)COc6cccc7c6C(=O)N(C6CCC(=O)NC6=O)C7=O)CC5)c4)c3)cs2)c1 (centres unmarked) [Compound 32, N-[2-[[4-[3-[2-[4-[2-[[[2-[2-(2,6-dioxo-3-piperidyl)-1,3-dioxo-isoindolin-4-yl]oxyacetyl]amino]methyl]cyclopropanecarbonyl]piperazin-1-yl]-4-pyridyl]phenyl]thiazol-2-yl]amino]-2-oxo-ethyl]-1-methylsulfonyl-pyrrole-3-carboxamide] | > 10 | C (‘C’ = Maximum degradation <50%) | > 10 | < 50
6 | CS(=O)(=O)n1ccc(C(=O)NCC(=O)Nc2nc(-c3cccc(-c4ccnc(N5CCN(C(=O)CCCOc6cccc7c6C(=O)N(C6CCC(=O)NC6=O)C7=O)CC5)c4)c3)cs2)c1 (centres unmarked) [Compound 33, N-[2-[[4-[3-[2-[4-[4-[2-(2,6-dioxo-3-piperidyl)-1,3-dioxo-isoindolin-4-yl]oxybutanoyl]piperazin-1-yl]-4-pyridyl]phenyl]thiazol-2-yl]amino]-2-oxo-ethyl]-1-methylsulfonyl-pyrrole-3-carboxamide] | > 10 | C (‘C’ = Maximum degradation <50%) | > 10 | < 50
7 | CS(=O)(=O)n1ccc(C(=O)NCC(=O)Nc2nc(-c3cccc(-c4ccnc(N5CCN(C(=O)CCOCCOCCOc6cccc7c6C(=O)N(C6CCC(=O)NC6=O)C7=O)CC5)c4)c3)cs2)c1 (centres unmarked) [Compound 34, N-(2-((4-(3-(2-(4-(3-(2-(2-((2-(2,6-dioxopiperidin-3-yl)-1,3-dioxoisoindolin-4-yl)oxy)ethoxy)ethoxy)propanoyl)piperazin-1-yl)pyridin-4-yl)phenyl)thiazol-2-yl)amino)-2-oxoethyl)-1-(methylsulfonyl)-1H-pyrrole-3-carboxamide] | 0.1 to 1 | B (‘B’ = Maximum degradation ≥50% and ≤75%) | 0.1 to 1 | 50 to 75
8 | CS(=O)(=O)n1ccc(C(=O)NCC(=O)Nc2nc(-c3cccc(-c4ccnc(OCCNC(=O)CCCOc5cccc6c5C(=O)N(C5CCC(=O)NC5=O)C6=O)c4)c3)cs2)c1 (centres unmarked) [Compound 36, N-[2-[[4-[3-[2-[2-[4-[2-(2,6-dioxo-3-piperidyl)-1,3-dioxo-isoindolin-4-yl]oxybutanoylamino]ethoxy]-4-pyridyl]phenyl]thiazol-2-yl]amino]-2-oxo-ethyl]-1-methylsulfonyl-pyrrole-3-carboxamide] | > 10 | C (‘C’ = Maximum degradation <50%) | > 10 | < 50
9 | CS(=O)(=O)n1ccc(C(=O)NCC(=O)Nc2nc(-c3cccc(-c4ccnc(OCCNC(=O)C5CC5CNC(=O)COc5cccc6c5C(=O)N(C5CCC(=O)NC5=O)C6=O)c4)c3)cs2)c1 (centres unmarked) [Compound 37, N-[2-[[4-[3-[2-[2-[[2-[[[2-[2-(2,6-dioxo-3-piperidyl)-1,3-dioxoisoindolin-4-yl]oxyacetyl]amino]methyl]cyclopropanecarbonyl]amino]ethoxy]-4-pyridyl]phenyl]thiazol-2-yl]amino]-2-oxoethyl]-1-methylsulfonyl-pyrrole-3-carboxamide] | > 10 | C (‘C’ = Maximum degradation <50%) | > 10 | < 50

Further lines, results first:

Row | DC50 (HiBit-BRM fusion protein) [µM] | BRM HiBit Degradation Maximum measured (HiBit-BRM fusion protein) | DC50 [1] [µM] | Dmax [1] [%] | SMILES
10 | > 10 | C (‘C’ = Maximum degradation <50%) | > 10 | < 50 | Cc1ncsc1-c1ccc(CNC(=O)[C@@H]2C[C@@H](O)CN2C(=O)[C@@H](NC(=O)COCC(=O)NCc2cccc(-c3cccc(-c4csc(NC(=O)CNC(=O)c5ccn(S(C)(=O)=O)c5)n4)c3)c2)C(C)(C)C)cc1 [Compound 18, N-[2-[[4-[3-[3-[[[2-[2-[[(1S)-1-[(2S,4R)-4-hydroxy-2-[[4-(4-methylthiazol-5-yl)phenyl]methylcarbamoyl]pyrrolidine-1-carbonyl]-2,2-dimethyl-propyl]amino]-2-oxo-ethoxy]acetyl]amino]methyl]-phenyl]phenyl]thiazol-2-yl]amino]-2-oxo-ethyl]-1-methylsulfonyl-pyrrole-3-carboxamide]
11 | < 0.1 | A (‘A’ = Maximum degradation >75%) | 0.1 to 1 | > 75 | Cc1ncsc1-c1ccc(CNC(=O)[C@@H]2C[C@@H](O)CN2C(=O)[C@@H](NC(=O)CCCCCCCCC(=O)NCc2cccc(-c3cccc(-c4csc(NC(=O)CNC(=O)c5ccn(S(C)(=O)=O)c5)n4)c3)c2)C(C)(C)C)cc1 [Compound 19, N′-[(1S)-1-[(2S,4R)-4-hydroxy-2-[[4-(4-methylthiazol-5-yl)phenyl]methylcarbamoyl]pyrrolidine-1-carbonyl]-2,2-dimethylpropyl]-N-[[3-[3-[2-[[2-[(1-methylsulfonylpyrrole-3-carbonyl)amino]acetyl]amino]thiazol-4-yl]phenyl]phenyl]methyl]decanediamide]
12 | > 10 | C (‘C’ = Maximum degradation <50%) | > 10 | 50 to 75 | CS(=O)(=O)n1ccc(C(=O)NCC(=O)Nc2nc(-c3cccc(-c4cccc(CNC(=O)CCCCCCCCNc5cccc6c5C(=O)N(C5CCC(=O)NC5=O)C6=O)c4)c3)cs2)c1 (centres unmarked) [Compound 20, N-(2-((4-(3′-((9-((2-(2,6-dioxopiperidin-3-yl)-1,3-dioxoisoindolin-4-yl)amino)nonanamido)methyl)-[1,1′-biphenyl]-3-yl)thiazol-2-yl)amino)-2-oxoethyl)-1-(methylsulfonyl)-1H-pyrrole-3-carboxamide]
13 | 0.1 to 1 | A (‘A’ = Maximum degradation >75%) | 0.1 to 1 | > 75 | CS(=O)(=O)n1ccc(C(=O)NCC(=O)Nc2nc(-c3cccc(-c4ccnc(N5CCN(C(=O)CCOCCOCCNc6cccc7c6C(=O)N(C6CCC(=O)NC6=O)C7=O)CC5)c4)c3)cs2)c1 (centres unmarked) [Compound 31, N-[2-[[4-[3-[2-[4-[3-[2-[2-[[2-(2,6-dioxo-3-piperidyl)-1,3-dioxo-isoindolin-4-yl]amino]ethoxy]ethoxy]propanoyl]piperazin-1-yl]-4-pyridyl]phenyl]thiazol-2-yl]amino]-2-oxo-ethyl]-1-methylsulfonyl-pyrrole-3-carboxamide]
14 | 0.1 to 1 | A (‘A’ = Maximum degradation >75%) | < 0.1 | > 75 | CS(=O)(=O)n1ccc(C(=O)NCC(=O)Nc2nc(-c3cccc(-c4ccnc(N5CCN(C(=O)CCCCCCCCCCNc6ccc7c(c6)C(=O)N(C6CCC(=O)NC6=O)C7=O)CC5)c4)c3)cs2)c1 (centres unmarked) [Compound 35, N-[2-[[4-[3-[2-[4-[11-[[2-(2,6-dioxo-3-piperidyl)-1,3-dioxo-isoindolin-5-yl]amino]undecanoyl]piperazin-1-yl]-4-pyridyl]phenyl]thiazol-2-yl]amino]-2-oxo-ethyl]-1-methylsulfonyl-pyrrole-3-carboxamide]
